Data on 44 compounds can be found in US7767665B2, “1,3-benzothiazinone derivatives and use thereof” (Takeda Pharmaceutical Company Limited, priority 2001, dated 2010).

`CCCCCSc1cccc(-c2nc(=O)c3ccccc3s2)n1` [Example 129, 2-[6-(Pentylthio)-2-pyridyl]-4H-1,3-benzothiazine-4-one] displayed a melting point of 105 to 105.1 °C.

For `CC(C)CCSc1cccc(-c2nc(=O)c3ccccc3s2)n1` [Example 130, 2-[6-(Isopentylthio)-2-pyridyl]-4H-1,3-benzothiazine-4-one], the melting point fell in the range of 103.4 to 105.1 °C. Next, `O=c1nc(-c2cccc(SCCc3ccccc3)n2)sc2ccccc12` [Example 131, 2-[6-(2-Phenethylthio)-2-pyridyl]-4H-1,3-benzothiazine-4-one]: 167.1 to 168.4 °C; `O=C(O)c1ccc2c(=O)nc(-c3ccccn3)sc2c1` [Example 135, 4-Oxo-2-(2-pyridyl)-4H-1,3-benzothiazine-7-carboxylic acid]: 294.7 to 295.1 °C. Next, `Cc1cccc(-c2nc(=O)c3ccccc3s2)n1` [Example 136, 2-(6-Methyl-2-pyridyl)-4H-1,3-benzothiazine-4-one]: 169.8 to 170.3 °C.

For the compound `O=c1nc(-c2cc(-c3ccccc3)ccn2)sc2ccccc12` [Example 137, 2-(4-Phenyl-2-pyridyl)-4H-1,3-benzothiazine-4-one], the melting point lay within 164.4 to 164.7 °C.

For the compound `Cc1ccnc(-c2nc(=O)c3ccccc3s2)c1` [Example 138, 2-(4-Methyl-2-pyridyl)-4H-1,3-benzothiazine-4-one], the melting point was in the range of 199.7 to 199.9 °C. Next, `O=c1nc(-c2ccc3c(n2)CCCC3)sc2ccccc12` [Example 139, 2-(5,6,7,8-Tetrahydro-2-quinolyl)-4H-1,3-benzothiazine-4-one]: 232.3 to 232.8 °C.

The compound `CCc1cccc(-c2nc(=O)c3ccccc3s2)n1` [Example 140, 2-(6-Ethyl-2-pyridyl)-4H-1,3-benzothiazine-4-one] had a melting point of 150.5 to 150.9 °C. Next, `Nc1ccnc(-c2nc(=O)c3ccccc3s2)c1` [Example 142, 2-(4-Amino-2-pyridyl)-4H-1,3-benzothiazine-4-one]: 207.6 to 207.9 °C; `N#Cc1ccnc(-c2nc(=O)c3ccccc3s2)c1` [Example 143, 2-(4-Cyano-2-pyridyl)-4H-1,3-benzothiazine-4-one]: 283.4 to 283.6 °C. Next, `CCN(CC)C(=O)c1ccc(-c2nc(=O)c3ccccc3s2)nc1` [Example 144, N,N-Diethyl-6-(4-oxo-4H-1,3-benzothiazin-2-yl)nicotinamide]: 193.2 to 193.3 °C.

`CC(=O)c1ccc(-c2nc(=O)c3ccccc3s2)nc1` [Example 145, 2-(5-Acetyl-2-pyridyl)-4H-1,3-benzothiazine-4-one] showed a melting point of 276.3 to 276.7 °C. Next, `CC(C)(C)OC(=O)/C=C/c1cccc(-c2nc(=O)c3ccccc3s2)n1` [Example 147, tert-Butyl (E)-3-[6-(4-oxo-4H-1,3-benzothiazin-2-yl)-2-pyridyl]-2-propenoate]: 175.5 to 177.6 °C. For the compound `O=C(O)/C=C/c1cccc(-c2nc(=O)c3ccccc3s2)n1` [Example 148, (E)-3-[6-(4-oxo-4H-1,3-benzothiazin-2-yl)-2-pyridyl]-2-prop enoic acid], the melting point fell in the range of 115.6 to 115.7 °C. Next, `CC[S+]([O-])c1cccc(-c2nc(=O)c3ccccc3s2)n1` (centres unmarked) [Example 149, 2-[6-(Ethylsulfinyl)-2-pyridyl]-4H-1,3-benzothiazine-4-one]: 181.5 to 182.1 °C.

The compound `CCS(=O)(=O)c1cccc(-c2nc(=O)c3ccccc3s2)n1` [Example 150, 2-[6-(Ethylsulfonyl)-2-pyridyl]-4H-1,3-benzothiazine-4-one] showed a melting point of 201.5 to 203 °C. In turn, `CC(C)S(=O)(=O)c1cccc(-c2nc(=O)c3ccccc3s2)n1` [Example 152, 2-[6-(Isopropylsulfonyl)-2-pyridyl]-4H-1,3-benzothiazine-4-one] gave a melting point of 205 to 206 °C.

Consider `CC(C)(C)[S+]([O-])c1cccc(-c2nc(=O)c3ccccc3s2)n1` (centres unmarked) [Example 153, 2-[6-(tert-Butylsulfinyl)-2-pyridyl]-4H-1,3-benzothiazine-4-one], for which the melting point was 180.5 °C (dec.).

Consider `CC(C)(C)S(=O)(=O)c1cccc(-c2nc(=O)c3ccccc3s2)n1` [Example 154, 2-[6-(tert-Butylsulfonyl)-2-pyridyl]-4H-1,3-benzothiazine-4-one], for which the melting point fell in the range of 233.6 to 234.7 °C.

`CCCCC[S+]([O-])c1cccc(-c2nc(=O)c3ccccc3s2)n1` (centres unmarked) [Example 155, 2-[6(n-Pentylsulfinyl)-2-pyridyl]-4H-1,3-benzothiazine-4-one] gave a melting point of 146 to 147 °C. Next, `CCCCCS(=O)(=O)c1cccc(-c2nc(=O)c3ccccc3s2)n1` [Example 156, 2-[6-(n-Pentylsulfonyl)-2-pyridyl]-4H-1,3-benzothiazine-4-one]: 160 to 161 °C; `CC(C)CC[S+]([O-])c1cccc(-c2nc(=O)c3ccccc3s2)n1` (centres unmarked) [Example 157, 2-(6-Isoamylsulfinyl-2-pyridyl)-4H-1,3-benzothiazine-4-one]: 59.5 to 61 °C. Compound `CC(C)CCS(=O)(=O)c1cccc(-c2nc(=O)c3ccccc3s2)n1` [Example 158, 2-(6-Isoamylsulfonyl-2-pyridyl)-4H-1,3-benzothiazine-4-one] showed a melting point of 145.5 to 147 °C.

As to `O=c1nc(-c2cccc(SCc3ccccc3)n2)sc2ccccc12` [Example 159, 2-(6-Benzylthio-2-pyridyl)-4H-1,3-benzothiazine-4-one], the melting point lay in the range of 227 to 228 °C.

`O=c1nc(-c2cccc([S+]([O-])Cc3ccccc3)n2)sc2ccccc12` (centres unmarked) [Example 160, 2-(6-Benzylsulfinyl-2-pyridyl)-4H-1,3-benzothiazine-4-one] had a melting point of 208.5 to 210 °C.

Turning to `O=c1nc(-c2cccc(S(=O)(=O)Cc3ccccc3)n2)sc2ccccc12` [Example 161, 2-[6-(Benzylsulfonyl)-2-pyridyl]-4H-1,3-benzothiazine-4-one], the melting point lay in the range of 217 to 218 °C. As to `O=c1nc(-c2cccc([S+]([O-])CCc3ccccc3)n2)sc2ccccc12` (centres unmarked) [Example 162, 2-[6-(2-Phenylethylsulfinyl)-2-pyridyl]-4H-1,3-benzothiazine-4-one], the melting point was in the range of 164.5 to 165.5 °C. Next, `O=c1nc(-c2cccc(S(=O)(=O)CCc3ccccc3)n2)sc2ccccc12` [Example 163, 2-[6-(2-Phenylethyl)sulfonyl-2-pyridyl]-4H-1,3-benzothiazine-4-one]: 161.5 to 163.5 °C. `O=c1nc(-c2cccc(SCCCc3ccccc3)n2)sc2ccccc12` [Example 164, 2-[6-(3-Phenylpropylthio)-2-pyridyl]-4H-1,3-benzothiazine-4-one] came in with a melting point of 192.5 to 194 °C. Next, `O=c1nc(-c2cccc([S+]([O-])CCCc3ccccc3)n2)sc2ccccc12` (centres unmarked) [Example 165, 2-[6-[(3-Phenylpropyl)sulfinyl]-2-pyridyl]-4H-1,3-benzothiazine-4-one]: 164.5 to 165.5 °C. Next, `O=c1nc(-c2cccc(S(=O)(=O)CCCc3ccccc3)n2)sc2ccccc12` [Example 166, 2-[6-[(3-Phenylpropyl)sulfonyl]-2-pyridyl]-4H-1,3-benzothiazine-4-one]: 149.5 to 151 °C; `CSCc1cccc(-c2nc(=O)c3ccccc3s2)n1` [Example 167, 2-(6-Methylthiomethyl-2-pyridyl)-4H-1,3-benzothiazine-4-one]: 151.5 to 153 °C.

With `C[S+]([O-])Cc1cccc(-c2nc(=O)c3ccccc3s2)n1` (centres unmarked) [Example 168, 2-(6-Methylsulfinylmethyl-2-pyridyl)-4H-1,3-benzothiazine-4-one], the melting point lay in the range of 184.5 to 185.5 °C.

In the case of `CS(=O)(=O)Cc1cccc(-c2nc(=O)c3ccccc3s2)n1` [Example 169, 2-(6-Methylsulfonylmethyl-2-pyridyl)-4H-1,3-benzothiazine-4-one], the melting point is 230.5 to 231.5 °C. Consider `O=c1nc(-c2cccc(CN3CCOCC3)n2)sc2ccccc12` [Example 170, 2-[6-(4-Morpholinomethyl)-2-pyridyl]-4H-1,3-benzothiazine-4-one], for which the melting point was 191.8 °C (dec.). `CSc1ccc(-c2nc(=O)c3ccccc3s2)cn1` [Example 171, 2-[6-(Methylthio)-3-pyridyl]-4H-1,3-benzothiazine-4-one] showed a melting point of 167.9 to 169.9 °C. Next, `O=c1nc(-c2c[nH]c3ccccc23)sc2ccccc12` [Example 172, 2-(1H-Indol-3-yl)-4H-1,3-benzothiazine-4-one]: 276.5 to 277 °C.

In the case of `COc1ccc2c(=O)nc(-c3cccc(CCC(=O)OC(C)(C)C)n3)sc2c1` [Example 173, tert-Butyl 3-[6-(7-methoxy-4-oxo-4H-1,3-benzothiazin-2-yl)-2-pyridyl]propanoate], the melting point lay in the range of 134.5 to 135.4 °C. Next, `COc1ccc2c(=O)nc(-c3cccc(CCC(=O)O)n3)sc2c1` [Example 174, 3-[6-(7-Methoxy-4-oxo-4H-1,3-benzothiazin-2-yl)-2-pyridyl]propionic acid]: 234.2 to 235.2 °C. `Cc1ccc2c(=O)nc(-c3cccc(CCC(=O)OC(C)(C)C)n3)sc2c1` [Example 175, tert-Butyl 3-[6-(7-methyl-4-oxo-4H-1,3-benzothiazin-2-yl)-2-pyridyl]propanoate]: the melting point lay within 134.8 to 134.9 °C. In the case of `Cc1ccc2c(=O)nc(-c3cccc(CCC(=O)O)n3)sc2c1` [Example 176, 3-[6-(7-Methyl-4-oxo-4H-1,3-benzothiazin-2-yl)-2-pyridyl]propionic acid], the melting point fell in the range of 221.9 to 222.5 °C.

`CC(C)(C)OC(=O)CCc1cccc(-c2nc(=O)c3ccc(C(F)(F)F)cc3s2)n1` [Example 177, tert-Butyl 3-[6-(4-oxo-7-trifluoromethyl-4H-1,3-benzothiazin-2-yl)-2-pyridyl]propanoate] showed a melting point of 148.5 to 149.4 °C. Next, `O=C(O)CCc1cccc(-c2nc(=O)c3ccc(C(F)(F)F)cc3s2)n1` [Example 178, 3-[6-(4-Oxo-7-trifluoromethyl-4H-1,3-benzothiazin-2-yl)-2-pyridyl]propionic acid]: 192.9 to 193.1 °C.
